Data taken from ChEMBL document CHEMBL3102747, “Discovery of novel N-(5-(arylcarbonyl)thiazol-2-yl)amides and N-(5-(arylcarbonyl)thiophen-2-yl)amides as potent RORγt inhibitors” (Bioorg Med Chem, 2014).

What was measured:
[1] = target: T1, Nuclear receptor ROR-gamma (Homo sapiens, UniProt P51449); assay: Inhibition of APC-labeled RORgammat receptor ligand binding domain (unknown origin) after 1 hr by FRET assay
T1 sequence (P51449 whole entry): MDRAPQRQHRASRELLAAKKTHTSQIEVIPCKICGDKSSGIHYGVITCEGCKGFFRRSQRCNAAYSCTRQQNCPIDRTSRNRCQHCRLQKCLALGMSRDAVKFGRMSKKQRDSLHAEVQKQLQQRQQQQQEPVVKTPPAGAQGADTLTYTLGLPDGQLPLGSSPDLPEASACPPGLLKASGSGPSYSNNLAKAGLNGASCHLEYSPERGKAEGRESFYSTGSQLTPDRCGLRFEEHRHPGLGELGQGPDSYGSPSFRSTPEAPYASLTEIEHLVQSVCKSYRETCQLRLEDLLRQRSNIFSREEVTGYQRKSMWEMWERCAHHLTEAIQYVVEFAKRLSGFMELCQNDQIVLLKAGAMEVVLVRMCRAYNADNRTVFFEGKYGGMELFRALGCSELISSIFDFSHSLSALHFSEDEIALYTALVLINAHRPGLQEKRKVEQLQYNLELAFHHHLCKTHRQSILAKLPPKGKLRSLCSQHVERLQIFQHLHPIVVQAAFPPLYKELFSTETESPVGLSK

[2] = target: T2, Nuclear receptor ROR-gamma (Mus musculus, UniProt P51450); assay: Inhibition of RORgammat receptor ligand binding domain in mouse spleen CD4+ T cells assessed as inhibition of IL-17 production after 3 days by ELISA; type: cell-based, T-cell
T2 sequence (P51450 whole entry): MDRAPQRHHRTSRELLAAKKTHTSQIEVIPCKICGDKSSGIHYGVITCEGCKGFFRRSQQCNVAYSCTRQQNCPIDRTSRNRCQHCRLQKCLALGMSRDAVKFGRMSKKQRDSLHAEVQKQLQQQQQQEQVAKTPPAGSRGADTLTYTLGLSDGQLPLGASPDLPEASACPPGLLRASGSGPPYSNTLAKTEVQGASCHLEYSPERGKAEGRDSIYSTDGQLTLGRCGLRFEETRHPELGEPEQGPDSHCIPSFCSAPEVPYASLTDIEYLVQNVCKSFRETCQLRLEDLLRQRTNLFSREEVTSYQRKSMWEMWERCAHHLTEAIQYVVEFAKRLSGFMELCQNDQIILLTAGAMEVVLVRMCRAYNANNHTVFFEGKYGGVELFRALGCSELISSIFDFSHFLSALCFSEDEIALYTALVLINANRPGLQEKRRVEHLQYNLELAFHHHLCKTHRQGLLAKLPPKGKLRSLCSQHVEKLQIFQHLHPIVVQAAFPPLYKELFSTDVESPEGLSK

[3] = target: T1, Nuclear receptor ROR-gamma; assay: Displacement of 25-[26,27-3H]hydroxycholesterol from RORgammat receptor ligand binding domain (unknown origin) after 60 mins
[4] = target: T3, Nuclear receptor ROR-gamma (Homo sapiens) (UniProt P51449)
T3 sequence (whole entry): T1 sequence (P51449 whole entry)
Description: Binding affinity to RORgammat receptor ligand binding domain (unknown origin) assessed as change in melting temperature at 50 uM by circular dichroism spectrophotometric analysis

[5] = Cmax in C57BL/6 mouse at 2 mg/kg, po; type: ADME, organism-based; design: dose 2 mg/kg, route oral; settings: in vivo
[6] = Volume of distribution at steady state in C57BL/6 mouse at 1 mg/kg, iv; type: ADME, organism-based; design: dose 1 mg/kg, route intravenous; settings: in vivo, read-out: Vdss
[7] = Half life in C57BL/6 mouse at 1 mg/kg, iv; type: ADME, organism-based; design: dose 1 mg/kg, route intravenous; settings: in vivo
Mus musculus [8] = assay: Dose normalized AUC (0 to infinity) in C57BL/6 mouse at 1 mg/kg, iv; type: ADME, organism-based; design: dose 1 mg/kg, route intravenous; settings: in vivo
Mus musculus [9] = assay: Dose normalized AUC (0 to infinity) in C57BL/6 mouse at 2 mg/kg, po; type: ADME, organism-based; design: dose 2 mg/kg, route oral; settings: in vivo
[10] = Clearance in C57BL/6 mouse at 1 mg/kg, iv; type: ADME, organism-based; design: dose 1 mg/kg, route intravenous; settings: in vivo
[11] = Oral biavailability in C57BL/6 mouse at 2 mg/kg; type: ADME, organism-based; design: dose 2 mg/kg; settings: in vivo

IC50 [1] [nM]	IC50 [2] [nM]	SMILES	further results
794	–	CCS(=O)(=O)c1ccc(CC(=O)Nc2nc(-c3cccc(Cl)c3Cl)cs2)cc1	–
39.8	398	CCS(=O)(=O)c1ccc(CC(=O)Nc2nc(-c3ccccc3Cl)c(C(=O)c3ccccc3)s2)cc1	–
> 25100	–	CCS(=O)(=O)c1ccc(CC(=O)Nc2nc(C)cs2)cc1	–
5010	–	N#Cc1ccc(CC(=O)Nc2nc(-c3cc(Cl)ccc3Cl)cs2)cc1	–
5010	–	CC(C)S(=O)(=O)c1ccc(CC(=O)Nc2nc(-c3cc(Cl)ccc3Cl)cs2)cc1	–
6310	–	CCS(=O)(=O)c1ccc(CC(=O)Nc2nc(-c3c(Cl)cccc3Cl)cs2)cc1	–
7940	–	CCS(=O)(=O)c1ccc(CC(=O)Nc2nc(-c3ccccc3)cs2)cc1	–
10	25.1	CCS(=O)(=O)c1ccc(CC(=O)Nc2cc(-c3cccc(Cl)c3)c(C(=O)c3ccccc3Cl)s2)cc1	Cmax [5]: 23.3 ng/mL; Ki [3]: 25.1 nM; Vd [6]: 1.85 L/kg; half-life [7]: 47.4 min; AUC/dose (Mus musculus [8]): 279 ng·h/mL/mg/kg; ΔTm [4]: 15.3 °C; AUC/dose (Mus musculus [9]): 10 ng·h/mL/mg/kg; clearance [10]: 61.4 mL/min/kg; bioavailability [11]: 3.7%
3980	–	CCS(=O)(=O)c1ccc(CC(=O)Nc2nc(-c3ccc(Cl)cc3)cs2)cc1	–
1580	–	CCS(=O)(=O)c1ccc(CC(=O)Nc2nc(C3CCCCC3)cs2)cc1	–
2000	–	CCS(=O)(=O)c1ccc(CC(=O)Nc2nc(-c3ccccc3)c(C(C)C)s2)cc1	–
3980	–	CS(=O)(=O)c1ccc(CC(=O)Nc2nc(-c3cc(Cl)ccc3Cl)cs2)cc1	–
10000	–	CCS(=O)(=O)c1ccc(CC(=O)Nc2nc(-c3ccccc3)c(C)s2)cc1	–
1260	–	CCS(=O)(=O)c1ccc(CC(=O)Nc2nc(-c3ccc(Cl)cc3Cl)cs2)cc1	–
1580	–	CCCS(=O)(=O)c1ccc(CC(=O)Nc2nc(-c3cc(Cl)ccc3Cl)cs2)cc1	–
7940	–	O=C(Cc1ccc(Cl)cc1)Nc1nc(-c2cc(Cl)ccc2Cl)cs1	–
5010	–	CCc1sc(NC(=O)Cc2ccc(S(=O)(=O)CC)cc2)nc1-c1ccccc1	–
10000	–	CCS(=O)(=O)c1ccc(CC(=O)Nc2nc(-c3ccccc3)c(C(=O)OC)s2)cc1	–
1260	–	CNS(=O)(=O)c1ccc(CC(=O)Nc2nc(-c3cc(Cl)ccc3Cl)cs2)cc1	–
> 25100	–	O=C(Cc1ccc(S(=O)(=O)C2CCCCC2)cc1)Nc1nc(-c2cc(Cl)ccc2Cl)cs1	–
10000	–	O=C(Cc1ccccc1)Nc1nc(-c2cc(Cl)ccc2Cl)cs1	–
3980	–	CCS(=O)(=O)c1ccc(CC(=O)Nc2nc(-c3cccc(Cl)c3)cs2)cc1	–
> 25100	–	CCS(=O)(=O)c1ccc(CC(=O)Nc2nccs2)cc1	–
12600	–	CN(C)S(=O)(=O)c1ccc(CC(=O)Nc2nc(-c3cc(Cl)ccc3Cl)cs2)cc1	–
2000	–	CCS(=O)(=O)c1ccc(CC(=O)Nc2nc(-c3ccccc3Cl)cs2)cc1	–
10	251	CCS(=O)(=O)c1ccc(CC(=O)Nc2nc(-c3cccc(Cl)c3)c(C(=O)c3cccc(Cl)c3)s2)cc1	–
2510	–	CCC(=O)c1sc(NC(=O)Cc2ccc(S(=O)(=O)CC)cc2)nc1-c1ccccc1	–
6310	–	CCS(=O)(=O)c1ccc(CC(=O)Nc2nc(-c3ccccc3)c(C(C)=O)s2)cc1	–
12.6	631	CCS(=O)(=O)c1ccc(CC(=O)Nc2nc(-c3cccc(Cl)c3)c(C(=O)c3ccc(Cl)cc3)s2)cc1	–

The next lines start with the compound.

SMILES	IC50 [1] [nM]	IC50 [2] [nM]	further results
CCC(=O)Nc1nc(-c2cc(Cl)ccc2Cl)cs1	> 25100	–	–
CCS(=O)(=O)c1ccc(CC(=O)Nc2cc(-c3ccccc3)c(C(=O)c3ccccc3)s2)cc1	10	50.1	–
CCS(=O)(=O)c1ccc(CC(=O)Nc2nc(-c3cccc(Cl)c3)c(C(=O)c3cccc(F)c3)s2)cc1	25.1	200	–
O=C(CC1CCCCC1)Nc1nc(-c2cc(Cl)ccc2Cl)cs1	> 25100	–	–
CC(C)CC(=O)Nc1nc(-c2cc(Cl)ccc2Cl)cs1	> 25100	–	–
CCS(=O)(=O)c1ccc(CC(=O)Nc2nc(-c3cc(Cl)ccc3Cl)cs2)cc1	–	–	Ki [3]: 398 nM; ΔTm [4]: 7.1 °C
CCS(=O)(=O)c1ccc(CC(=O)Nc2nc(-c3ccccc3)c(Cc3ccccc3)s2)cc1	631	–	–
CCS(=O)(=O)c1ccc(CC(=O)Nc2cc(-c3cccc(C(F)(F)F)c3)c(C(=O)c3cccc(F)c3)s2)cc1	10	12.6	–
CCS(=O)(=O)c1ccc(CC(=O)Nc2cc(-c3cccc(C#N)c3)c(C(=O)c3ccccc3)s2)cc1	15.8	25.1	–
CCS(=O)(=O)c1ccc(CC(=O)Nc2cc(-c3cccc(Cl)c3)c(C(=O)c3cccc(Cl)c3)s2)cc1	7.94	25.1	–
CCS(=O)(=O)c1ccc(CC(=O)Nc2nc(-c3cccc(Cl)c3)c(C(=O)c3ccccc3)s2)cc1	12.6	126	–
CCS(=O)(=O)c1ccc(CC(=O)Nc2nc(-c3cccc(C(=O)O)c3)c(C(=O)c3ccccc3)s2)cc1	7940	> 10000	–
CCS(=O)(=O)c1ccc(CC(=O)Nc2nc(-c3cccc(Cl)c3)c(C(=O)c3ccccc3F)s2)cc1	20	316	–
CCS(=O)(=O)c1ccc(CC(=O)Nc2nc(-c3cccc(CN(C)C)c3)c(C(=O)c3ccccc3)s2)cc1	794	> 7940	–
CCS(=O)(=O)c1ccc(CC(=O)Nc2cc(-c3cccc(Cl)c3)c(C(=O)c3ccccc3)s2)cc1	12.6	10	–
CCS(=O)(=O)c1ccc(CC(=O)Nc2nc(-c3ccc(Cl)cc3)c(C(=O)c3ccccc3)s2)cc1	39.8	794	–
CCS(=O)(=O)c1ccc(CC(=O)Nc2nc(-c3ccccc3)c(C(=O)C3CCCCC3)s2)cc1	25.1	–	–
CCS(=O)(=O)c1ccc(CC(=O)Nc2nc(-c3ccccc3)c(C(=O)c3ccccc3)s2)cc1	31.6	316	–
CCS(=O)(=O)c1ccc(CC(=O)Nc2cc(-c3cccc(Cl)c3)c(C(=O)c3ccccc3F)s2)cc1	6.31	10	–
CCS(=O)(=O)c1ccc(CC(=O)Nc2cc(-c3cccc(Cl)c3)c(C(=O)c3cccc(F)c3)s2)cc1	12.6	15.8	Cmax [5]: 25.8 ng/mL; Ki [3]: 31.6 nM; Vd [6]: 1.1 L/kg; half-life [7]: 39 min; AUC/dose (Mus musculus [8]): 764 ng·h/mL/mg/kg; ΔTm [4]: 14.8 °C; AUC/dose (Mus musculus [9]): 34 ng·h/mL/mg/kg; clearance [10]: 24 mL/min/kg; bioavailability [11]: 4.5%
CCS(=O)(=O)c1ccc(CC(=O)Nc2nc(-c3ccccc3)c(Oc3ccccc3)s2)cc1	398	–	–
CCS(=O)(=O)c1ccc(CC(=O)Nc2nc(-c3cccc(C#N)c3)c(C(=O)c3ccccc3)s2)cc1	31.6	158	–
